According to US4323567A, “Arylmalonamido-1-oxadethiacephalosporins” (priority 1976, dated 1982):
Where two headings read alike, the source gives them in different places.

Key:
Assay in all cases: Minimal inhibitory concentration, nutrient agar plate
[1] = tested on: Klebsiella sp. 363; type: cell-based; details: inoculum size 10^8, pH 7.0, read-out: Minimal inhibitory concentration
[2] = tested on: Ps. aeruginosa 25619; type: cell-based, Pseudomonas aeruginosa; details: Pseudomonas aeruginosa, 25619, inoculum size 10^8, pH 7.0, read-out: Minimal inhibitory concentration
[3] = tested on: Klebsiella pneumoniae; type: cell-based; details: inoculum size 10^8, pH 7.0, read-out: Minimal inhibitory concentration
[4] = tested on: Serratia marsescens 13880; type: cell-based; details: Serratia, 13880, inoculum size 10^8, pH 7.0, read-out: Minimal inhibitory concentration
[5] = tested on: Enterobacter cloacae 233; type: cell-based; details: Enterobacter cloacae, 233, inoculum size 10^8, pH 7.0, read-out: Minimal inhibitory concentration
[6] = tested on: E. coli 377; type: cell-based, Escherichia coli; details: Escherichia coli, 377, inoculum size 10^8, pH 7.0, read-out: Minimal inhibitory concentration
[7] = tested on: E. coli JC-2; type: cell-based; details: Escherichia coli, JC2, inoculum size 10^8, pH 7.0, read-out: Minimal inhibitory concentration
[8] = tested on: E. coli 73; type: cell-based, Escherichia coli; details: Escherichia coli, 73, inoculum size 10^8, pH 7.0, read-out: Minimal inhibitory concentration
[9] = tested on: Ps. aeruginosa 24; type: cell-based, Pseudomonas aeruginosa; details: Pseudomonas aeruginosa, 24, inoculum size 10^8, pH 7.0, read-out: Minimal inhibitory concentration
[10] = tested on: Pseudomonas aeruginosa Denken; type: cell-based; details: inoculum size 10^8, pH 7.0, read-out: Minimal inhibitory concentration
[11] = tested on: P. morganii No. 9; type: cell-based, Proteus morganii; details: Morganella morganii, NO.9, inoculum size 10^8, pH 7.0, read-out: Minimal inhibitory concentration
[12] = tested on: Proteus mirabilis PR-4; type: cell-based; details: inoculum size 10^8, pH 7.0, read-out: Minimal inhibitory concentration
[13] = tested on: P. vulgaris CN-329; type: cell-based; details: Proteus vulgaris, CN329, inoculum size 10^8, pH 7.0, read-out: Minimal inhibitory concentration
[14] = tested on: Escherichia coli H; type: cell-based; details: inoculum size 10^8, pH 7.0, read-out: Minimal inhibitory concentration
[15] = ester, in the presence of 5% horse serum, sodium salt

| Structure (SMILES) | MIC ([1]; SP.363, as sodium salt) [µg/mL] | MIC ([2]; as sodium salt) [µg/mL] | MIC ([3]; as sodium salt) [µg/mL] | MIC ([4]; as sodium salt) [µg/mL] | MIC ([5]; as sodium salt) [µg/mL] | MIC ([6]; as sodium salt) [µg/mL] | MIC ([7]; as sodium salt) [µg/mL] | MIC ([8]; as sodium salt) [µg/mL] | MIC ([9]; as sodium salt) [µg/mL] | MIC ([10]; as sodium salt) [µg/mL] | MIC ([11]; as sodium salt) [µg/mL] | MIC ([12]; PR4, as sodium salt) [µg/mL] | MIC ([13]; as sodium salt) [µg/mL] | MIC ([14]; as sodium salt) [µg/mL] | also measured |
| --- | --- | --- | --- | --- | --- | --- | --- | --- | --- | --- | --- | --- | --- | --- | --- |
| Cn1nnnc1SCC1=C(C(=O)[O-])N2C(=O)[C@@H](NC(=O)C(C(=O)Oc3ccc4c(c3)CCC4)c3ccccc3)[C@H]2OC1.[Na+] (stereo partly drawn) [Example III-2, sodium 7β-[α-(5-indanyl)oxycarbonyl-α-phenylacetamido]-3-(1-methyltetrazol-5-yl)thiomethyl-1-oxadethia-3-cephem-4-carboxylate] |  |  |  |  |  |  |  |  |  |  |  |  |  |  | MIC ([1]; SP.363, ester, in the presence of 5% horse serum, sodium salt): > 100 µg/mL; MIC [2, 15]: 6.25 µg/mL; MIC [3, 15]: 0.2 µg/mL; MIC [4, 15]: 0.78 µg/mL; MIC [5, 15]: 0.39 µg/mL; MIC [6, 15]: 0.2 µg/mL; MIC [7, 15]: 0.2 µg/mL; MIC [8, 15]: > 100 µg/mL; MIC [9, 15]: > 100 µg/mL; MIC [10, 15]: > 100 µg/mL; MIC [11, 15]: 0.39 µg/mL; MIC ([12]; PR4, ester, in the presence of 5% horse serum, sodium salt): 0.39 µg/mL; MIC [13, 15]: 50 µg/mL; MIC [14, 15]: 0.1 µg/mL |
| Cn1nnnc1SCC1=C(C(=O)O)N2C(=O)[C@@H](NC(=O)C(C(=O)O)c3cccs3)[C@H]2OC1 (stereo partly drawn) [Example III-8, 7β-[α-(2-thienyl)-α-carboxyacetamido]-3-(1-methyltetrazol-5-yl)thiomethyl-1-oxadethia-3-cephem-4-carboxylic acid] | > 100 | 3.13 | 0.1 | 0.78 | 0.2 | 0.2 | 0.1 | > 100 | > 100 | > 100 | 0.39 | 0.2 | 50 | 0.1 |  |
| Cn1nnnc1SCC1=C(C(=O)O)N2C(=O)[C@@H](NC(=O)C(C(=O)O)c3ccsc3)[C@H]2OC1 (stereo partly drawn) [Example III-9, 7β-[α-(3-thienyl)-α-carboxyacetamido]-3-(1-methyltetrazol-5-yl)thiomethyl-1-oxadethia-3-cephem-4-carboxylic acid] | > 100 | 6.25 | 0.2 | 0.78 | 0.39 | 0.2 | 0.1 | > 100 |  | > 100 | 0.39 | 0.39 | 100 | 0.1 |  |
| O=C(O)Cn1nnnc1SCC1=C(C(=O)O)N2C(=O)[C@@H](NC(=O)C(C(=O)O)c3ccccc3)[C@H]2OC1 (stereo partly drawn) [Example III-10, 7β-(α-carboxy-α-phenylacetamido)-3-(1-carboxymethyltetrazol-5-yl)thiomethyl-1-oxadethia-3-cephem-4-carboxylic acid] | > 100 | 100 | 3.13 | 50 | 12.5 | 0.25 | 3.13 | > 100 | > 100 | > 100 | 0.78 | 0.78 | > 100 | 0.78 |  |
| O=C(O)Cn1nnnc1SCC1=C(C(=O)O)N2C(=O)[C@@H](NC(=O)C(C(=O)O)c3cccs3)[C@H]2OC1 (stereo partly drawn) [Example III-11, 7β-[α-(2-thienyl)-α-carboxyacetamido]-3-(1-carboxymethyltetrazol-5-yl)thiomethyl-1-oxadethia-3-cephem-4-carboxylic acid] | > 100 | > 100 | 3.13 | 25 | 25 | 6.25 | 12.5 | > 100 |  | > 100 | 1.56 | 1.56 | > 100 | 0.78 |  |
| Cc1nnc(SCC2=C(C(=O)O)N3C(=O)[C@@H](NC(=O)C(C(=O)O)c4ccccc4)[C@H]3OC2)s1 (stereo partly drawn) [Example III-12, 7β-(α-phenyl-α-carboxyacetamido)-3-(2-methyl-1,3,4-thiadiazol-5-yl)thiomethyl-1-oxadethia-3-cephem-4-carboxylic acid] | > 100 | 3.13 | 0.78 | 1.56 | 1.56 | 0.78 | 0.39 | > 100 | > 100 | > 100 | 0.39 | 0.39 | 100 | 0.2 |  |
